In patent US9480675B2, “Method for increasing muscle growth by blocking sirtuin activity” (THE REGENTS OF THE UNIVERSITY OF CALIFORNIA, priority 2013, dated 2016):

Test system: wild type mice
Test: 14 days of overload (synergist ablation of GTN and SOL) with daily injection of SIRT1 inhibitor; plantaris muscle hypertrophy
Format: in vivo
Excerpt: The plantaris (PLN) muscle in test subjects was overloaded by removal of the gastrocnemius (GTN) and soleus (SOL) muscles, termed synergist ablation. Briefly, test animals were anaesthetized and the area above the incision shaved and sterilized. The SOL and GTN were isolated and severed at the Achilles tendon. The complete SOL and the distal two thirds of the GTN were removed leaving the PLN muscle and their blood and nerve supply intact. The overlying skin was sutured with 6-0 vicryl and the animal was then given the analgesic and moved to a temperature-controlled environment to recover. […] Animals were monitored on a daily basis for signs of pain or post-operative infection. […] On the day of collection, animals were anaesthetized and overloaded and contralateral control muscles were rapidly removed, rinsed in PBS, all connective/scar tissue was removed using a dissection microscope, then the muscles were snap frozen in liquid nitrogen, and stored at −80° C. until processed.
To determine whether the effect of SIRT1 on overload-induced muscle hypertrophy required genetic ablation or whether pharmacological ablation of SIRT1 activity could mimic the effect of the knockout, GTN and SOL muscles of wild type mice were removed and half of the mice received daily injections of the SIRT1 inhibitor Splitomycin. There were 14 days of overload performed in wild type mice concurrent with daily injection of either saline (CON) or Splitomycin (Split).

O=C1CCc2c(ccc3ccccc23)O1 [Splitomycin]
effectiveness of therapeutic dose (in words) (25 mg/kg body weight per day): effective | effect on basal muscle mass (14 days of daily injection): without affecting basal muscle mass | effect on muscle hypertrophy (in words) (wild type mice, 14 days of overload, daily injection, saline (CON) vs Splitomycin (Split), FIG. 6): increases muscle hypertrophy | more muscle hypertrophy than vehicle (saline) injection (wild type mice, 14 days of overload, daily injection, versus saline/vehicle (FIG. 6)): 65%
